From patent publication US11111249B2, “Heteroaryl-pyrazole derivative, and preparation method therefor and medical application thereof” (Jiangsu Hengrui Medicine Co., Ltd., priority 2017, dated 2021)

Tests used:
[1] = biological target: T1, CYP2D6 (Homo sapiens, UniProt P10635); assay: Inhibition of human liver microsome CYP2D6 (dextromethorphan substrate); type: in vitro ADME; conditions: human liver microsomes, 30 minutes, read-out: IC50 for the metabolic site on CYP2D6
T1 construct: Human liver microsomes (Corning Gentest); tissue Corning Gentest; host or cells: human liver microsomes
Procedure: The enzymatic activity of the compound of the present application against human liver microsome CYP2D6 was determined by the following experimental method:
CYP probe substrate (20 μM Dextromethorphan, SIGMA Q0750) and positive control inhibitor (Quinidine, SIGMA D9684).
100 mM PBS buffer was configured, and 2.5 mg/mL microsome solution and 5 mM NADPH solution were prepared with this buffer, and the 5× concentration compound working solution was diluted with PBS (150, 50, 15, 5, 1.5, 0.15, 0.015, 0 μM). The 5× concentration of Quinidine working solution (150, 50, 15, 5, 1.5, 0.15, 0.015, 0 μM) was diluted with PBS. Dextromethorphan working solution was diluted to a concentration of 20 μM with PBS.
20 μL each of 2.5 mg/mL microsome solution, 20 μM Dextromethorphan working solution, MgCl2 solution and compound working solution (150, 50, 15, 5, 1.5, 0.15, 0.015, 0 μM, each concentration was setted differently reaction system) were taken and mixed evenly. The compound was replaced with the same concentration of Quinidine at the positive control group. At the same time, 5 mM NADPH solution was pre-incubated for 5 minutes at 37° C. After 5 minutes, 20 μL NADPH were added into the wells, and the reaction was started and incubated for 30 minutes. All samples were incubated for two samples. […]

[2] = test system: peripheral blood mononuclear cells (PBMC); assay: Stimulation of the secretion of IFN-α from PBMC (HTRF); type: cell-based, human; conditions: lowest concentration giving cytokine level at least 3 times the minimum detection limit; 24 hours
Procedure: The ability of the compound of the present application to stimulate the secretion of IFN-α from PBMC was determined by the following experimental method:
Compounds were diluted in pure DMSO at a maximum concentration of 5 mM in 4-fold gradients for a total of 9 points. Then 4 μL of the compound were taken and added to 196 μL of RMPI 1640 medium containing 10% FBS and mixed. 50 μL per well were taken and added into a new 96-well cell culture plate.
All reagents were equilibrated to room temperature, and a 250 mL culture flask was taken and 60 mL blood and PBS+2% FBS were added therein, and the mixture was gently diluted by pipetting. […] The cells were resuspend with RMPI 1640 medium containing 10% FBS and counted, adjusted the amount of PBMC to 3.33×10^6 cells/mL, and 150 μL were taken and added to the cell culture plate to which the compound had been added, and cultured at 37° C. in a 5.0% CO2 incubator for 24 hours. […]
It was read in the HTRF mode on the PHERAStar. […]
The ability of the compound of the present application and the control compound (prepared by the method of embodiment 21 of WO2016023511) to stimulate the secretion of IFN-α from PBMC were determined by the above test, and the measured MEC values were as shown in Table 2.

T1 sequence (P10635 whole entry): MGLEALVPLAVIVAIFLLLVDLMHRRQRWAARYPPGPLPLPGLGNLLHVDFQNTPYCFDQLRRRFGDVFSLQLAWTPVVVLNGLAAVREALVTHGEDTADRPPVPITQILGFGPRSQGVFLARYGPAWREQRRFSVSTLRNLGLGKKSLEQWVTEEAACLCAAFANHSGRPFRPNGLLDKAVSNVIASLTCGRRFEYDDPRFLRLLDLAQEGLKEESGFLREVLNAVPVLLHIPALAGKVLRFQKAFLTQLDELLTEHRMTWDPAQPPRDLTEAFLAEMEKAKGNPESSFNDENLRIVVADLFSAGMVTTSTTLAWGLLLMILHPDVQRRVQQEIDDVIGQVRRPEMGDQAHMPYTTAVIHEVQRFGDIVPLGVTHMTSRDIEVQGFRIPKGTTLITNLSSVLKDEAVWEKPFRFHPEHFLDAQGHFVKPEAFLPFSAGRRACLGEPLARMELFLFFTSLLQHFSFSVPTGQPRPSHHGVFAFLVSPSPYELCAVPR

Compound	IC50 [1] [µM]	MEC (Minimal Effective Concentration) to stimulate the secretion of IFN-α from PBMC [2] [nM]
CCCCOc1nc(N)c2[nH]nc(Cc3ccc(CN4CCCC4)cc3)c2n1 [Embodiment 1, 5-Butoxy-3-(4-(pyrrolidin-1-ylmethyl)benzyl)-1H-pyrazolo[4,3-d]pyrimidin-7-amine]	> 30	0.28
CCCCOc1nc(N)c2[nH]cc(Cc3ccc(CN4CCCC4)cc3)c2n1 [Embodiment 21 of WO2016023511]	5.3	5.5
